No end group written: not given here.
What was measured:
BRIN-BD11 cells [1] = test: GIP-stimulated insulin release from BRIN-BD11 cells (antagonism); format: cell-based; conditions: 5.6 mM glucose, native GIP 10^-7 M
Procedure: Tissue culture. […] Cells were maintained in sterile tissue culture flasks (Corning Glass Works, Sunderland, UK) at 37° C. in an atmosphere of 5% CO2 and 95% air using an LEEC incubator (Laboratory Technical Engineering, Nottingham, UK). Acute studies of insulin release. Insulin release from BRIN-BD11 cells was determined using cell monolayers ([…]. et al., 1996, Diabetes 45:1132-1140). Cells were harvested with the aid of trypsin/EDTA (Gibco), seeded into 24-multiwell plates (Nunc, Roskilde, Denmark) at a density of 1.0×10^5 cells per well, and allowed to attach overnight at 37° C.

BRIN-BD11 cells [2] = test: Insulin release from clonal pancreatic BRIN-BD11 cells (Example 6); format: cell-based; conditions: 5.6 mmol/l glucose, 20 minutes incubation
Procedure: Cells and cell culture. Chinese hamster lung (CHL) fibroblasts stably transfected with the human GIP receptor (Gremlich, S. et al., 1995, Diabetes 44: 1202-1208) were cultured in DMEM tissue culture medium containing 10% (v/v) FBS, 1% (v/v) antibiotics (100 U/ml penicillin, 0.1 mg/ml streptomycin). Clonal pancreatic BRIN-BD11 cells (McClenaghan, N. H. et al., 1996, Diabetes 45: 1132-1140) were cultured using RPMI-1640 culture medium containing 10% (v/v) FBS, 1% (v/v) antibiotics (100 U/ml penicillin, 0.1 mg/ml streptomycin) and 11.1 mmol/l glucose. Cells were maintained at 37° C. in an atmosphere of 5% CO2 and 95% air using an LEEC incubator (Laboratory Technical Engineering, Nottingham, UK).
Insulin-release studies were carried out using clonal pancreatic BRIN-BD11 cells as described previously (O'Harte, F. P. M. et al., 2002, Diabetologia 45: 1281-1291). Briefly, BRIN-BD11 cells were seeded into 24-well plates at a density of 10^5 cells per well, and allowed to attach overnight at 37° C. Acute tests for insulin release were preceded by 40 minutes pre-incubation at 37° C. in 1.0 ml Krebs Ringer bicarbonate buffer supplemented with 1.1 mmol/l glucose. Test incubations were performed in the presence of 5.6 mmol/l glucose with a range of concentrations (10^−13 to 10^−6 mol/l) of GIP and GIP analogues. After 20 minutes incubation, the buffer was removed from each well and aliquots (200 μl) used for measurement of insulin.

DPP IV = biological target: T1, DPP IV (Sus scrofa, UniProt P22411); test: Degradation of GIP and analogues by DPP IV (HPLC); format: in vitro ADME
T1 construct: purchased Sigma (Poole, Dorset, UK)
T1 sequence (P22411 whole entry): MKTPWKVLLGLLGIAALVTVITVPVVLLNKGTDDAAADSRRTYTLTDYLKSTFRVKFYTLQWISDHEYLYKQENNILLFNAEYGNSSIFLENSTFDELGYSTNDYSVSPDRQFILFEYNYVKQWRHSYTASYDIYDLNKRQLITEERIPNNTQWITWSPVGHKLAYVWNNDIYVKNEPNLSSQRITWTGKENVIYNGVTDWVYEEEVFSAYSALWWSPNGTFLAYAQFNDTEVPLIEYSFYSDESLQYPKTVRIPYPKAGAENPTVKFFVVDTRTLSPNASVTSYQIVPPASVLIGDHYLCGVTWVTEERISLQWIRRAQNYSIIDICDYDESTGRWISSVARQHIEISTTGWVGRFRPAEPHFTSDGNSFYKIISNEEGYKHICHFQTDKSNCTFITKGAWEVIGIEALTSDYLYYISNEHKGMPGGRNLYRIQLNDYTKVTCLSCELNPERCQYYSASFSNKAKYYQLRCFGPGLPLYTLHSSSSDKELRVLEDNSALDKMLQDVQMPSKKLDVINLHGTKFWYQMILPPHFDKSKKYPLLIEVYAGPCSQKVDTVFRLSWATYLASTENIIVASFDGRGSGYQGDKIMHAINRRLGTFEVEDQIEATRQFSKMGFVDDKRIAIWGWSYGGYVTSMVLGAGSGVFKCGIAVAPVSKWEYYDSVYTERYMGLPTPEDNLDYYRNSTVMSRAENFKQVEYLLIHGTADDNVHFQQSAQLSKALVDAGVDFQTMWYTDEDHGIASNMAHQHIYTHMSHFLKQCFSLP
Procedure: Degradation of GIP and Tyr^1-glucitol GIP by DPP IV. HPLC-purified GIP or Tyr^1-glucitol GIP were incubated at 37° C. with DPP-IV (5 mU) for various time periods in a reaction mixture made up to 500 μl with 50 mmol/l triethanolamine-HCl, pH 7.8 (final peptide concentration 1 mmol/l). Enzymatic reactions were terminated after 0, 2, 4 and 12 hours by addition of 5 μl of 10% (v/v) TFA/water. Samples were made up to a final volume of 1.0 ml with 0.12% (v/v) TFA and stored at −20° C. prior to HPLC analysis.
HPLC analysis of degraded GIP and Tyr^1-glucitol GIP. […] Using 0.1% (v/v) TFA in 70% acetonitrile/H20, the concentration of acetonitrile in the eluting solvent was raised from 0% to 31.5% over 15 min, to 38.5% over 30 minutes and from 38.5% to 70% over 5 minutes, using linear gradients. The absorbance was monitored at 206 nm and peak areas evaluated using a model 2221 LKB integrator. Samples recovered manually were concentrated using a Speed-Vac concentrator.
Electrospray ionization-mass spectrometry (ESI-MS) was carried out as described in Example 2. Degradation of GIP and novel GIP analogues by DPP IV and human plasma was carried out as described in Example 2.

[3] = isolated enzyme dpp iv, pH 7.8, % Intact peptide remaining after time (h)

Compound | inhibition of GIP-stimulated insulin secretion (BRIN-BD11 cells [1]) | insulin secretion compared to control (BRIN-BD11 cells [2]) | % Intact peptide remaining after time (h) (DPP IV; 0 h) [%] | metabolised at 12 h, 1 mmol/l (DPP IV; isolated enzyme dpp iv, pH 7.8) [%] | remaining at 2 h, 1 mmol/l (DPP IV; [3]) [%] | remaining at 4 h, 1 mmol/l (DPP IV; [3]) [%] | remaining at 8 h, 1 mmol/l (DPP IV; [3]) [%] | remaining at 24 h, 1 mmol/l (DPP IV; [3]) [%] | remaining at 4 h, 1 mmol/l (DPP IV; isolated enzyme dpp iv, pH 7.8, % intact after incubation with DPP IV) [%]
YAPGTFISDYSIAMDKIHQQDFVNWLLAQKGKKNDWKHNITQ [(Pro^3)GIP] | inhibited in dose-dependent fashion |  |  |  |  |  |  |  | 
CCCCCCCCCCCCCCCC(=O)NCCCC[C@H](NC(=O)[C@H](Cc1c[nH]c2ccccc12)NC(=O)[C@H](CC(=O)O)NC(=O)[C@H](CC(N)=O)NC(=O)[C@H](CCCCN)NC(=O)[C@H](CCCCN)NC(=O)CNC(=O)[C@H](CCCCN)NC(=O)[C@H](CCC(N)=O)NC(=O)[C@H](C)NC(=O)[C@H](CC(C)C)NC(=O)[C@H](CC(C)C)NC(=O)[C@H](Cc1c[nH]c2ccccc12)NC(=O)[C@H](CC(N)=O)NC(=O)[C@@H](NC(=O)[C@H](Cc1ccccc1)NC(=O)[C@H](CC(=O)O)NC(=O)[C@H](CCC(N)=O)NC(=O)[C@H](CCC(N)=O)NC(=O)[C@H](Cc1c[nH]cn1)NC(=O)[C@@H](NC(=O)[C@H](CCCCN)NC(=O)[C@H](CC(=O)O)NC(=O)[C@H](CCSC)NC(=O)[C@H](C)NC(=O)[C@@H](NC(=O)[C@H](CO)NC(=O)[C@H](Cc1ccc(O)cc1)NC(=O)[C@H](CC(=O)O)NC(=O)[C@H](CO)NC(=O)[C@@H](NC(=O)[C@H](Cc1ccccc1)NC(=O)[C@@H](NC(=O)CNC(=O)[C@H](CCC(=O)O)NC(=O)[C@H](C)NC(=O)[C@H](Cc1ccc(O)cc1)NC(C)=O)[C@@H](C)O)[C@@H](C)CC)[C@@H](C)CC)[C@@H](C)CC)C(C)C)C(=O)N[C@@H](Cc1c[nH]cn1)C(=O)N[C@@H](CC(N)=O)C(=O)N[C@H](C(=O)N[C@H](C(=O)N[C@@H](CCC(N)=O)C(=O)O)[C@@H](C)O)[C@@H](C)CC [N-AcGIP(LysPAL^37)] |  | significantly stimulated glucose-induced insulin secretion |  |  |  |  |  |  | 
CC[C@H](C)[C@H](NC(=O)[C@H](CO)NC(=O)[C@H](Cc1ccc(O)cc1)NC(=O)[C@H](CC(=O)O)NC(=O)[C@H](CO)NC(=O)[C@@H](NC(=O)[C@H](Cc1ccccc1)NC(=O)[C@@H](NC(=O)CNC(=O)[C@H](CCC(=O)O)NC(=O)[C@H](C)NC(=O)[C@@H](N)Cc1ccc(O)cc1)[C@@H](C)O)[C@@H](C)CC)C(=O)N[C@@H](C)C(=O)N[C@@H](CCSC)C(=O)N[C@@H](CC(=O)O)C(=O)N[C@@H](CCCCN)C(=O)N[C@H](C(=O)N[C@@H](Cc1c[nH]cn1)C(=O)N[C@@H](CCC(N)=O)C(=O)N[C@@H](CCC(N)=O)C(=O)N[C@@H](CC(=O)O)C(=O)N[C@@H](Cc1ccccc1)C(=O)N[C@H](C(=O)N[C@@H](CC(N)=O)C(=O)N[C@@H](Cc1c[nH]c2ccccc12)C(=O)N[C@@H](CC(C)C)C(=O)N[C@@H](CC(C)C)C(=O)N[C@@H](C)C(=O)N[C@@H](CCC(N)=O)C(=O)N[C@@H](CCCCN)C(=O)NCC(=O)N[C@@H](CCCCN)C(=O)N[C@@H](CCCCN)C(=O)N[C@@H](CC(N)=O)C(=O)N[C@@H](CC(=O)O)C(=O)N[C@@H](Cc1c[nH]c2ccccc12)C(=O)N[C@@H](CCCCN)C(=O)N[C@@H](Cc1c[nH]cn1)C(=O)N[C@@H](CC(N)=O)C(=O)N[C@H](C(=O)N[C@H](C(=O)N[C@@H](CCC(N)=O)C(=O)O)[C@@H](C)O)[C@@H](C)CC)C(C)C)[C@@H](C)CC [GIP 1–42, reference compound] |  | dose-dependently stimulated insulin secretion | 100 | 60 | 52 ± 1 | 23 ± 1 | 0 | 0 | 54

From US7875587B2, “Peptide analogues of GIP for treatment of diabetes, insulin resistance and obesity” (UUTECH Limited, priority 2004, dated 2011)
